From patent US12702654B2, “Compositions and methods for treating homocystinuria and other conditions using polyamines” (THE REGENTS OF THE UNIVERSITY OF COLORADO, priority 2020, dated 2026)

Key:
[1] = system: HO HCU mice; test: Plasma metabolite levels (tHcy, methionine cycle amino acids, SAM, SAH) in HO HCU mice; format: in vivo, mouse; conditions: for plasma Hcy / plasma cysteine levels: HO mice, about 3.0% (w/v) in drinking water ad libitum, normal methionine diet
Procedure: It is noted that WT mice (n=6) include untreated controls. HO HCU mice (N=8, 4 of each sex in each group) were either untreated or treated with about 3.0% (w/v) glycine w/v or about 3.0% (w/v) serine given in drinking water supplied ad libitum for one week. Plasma samples were taken and Hcy and cysteine levels were determined. *** denotes a P value <0.0001.
In accordance with these methods, HO HCU mice (N=8, 4 of each sex in each group) were treated with either about 3.0% glycine w/v or about 3.0% w/v serine given in drinking water supplied ad libitum for one week in the presence and absence of about 3.0% w/v betaine. Plasma samples were taken from the mice at various times and Hcy levels were determined.
Plasma Hcy levels were determined from HO HCU mice (n=8 per group) in the presence and absence of either about 5.0% w/v sodium formate alone or in combination with about 3.0% betaine given in drinking water given ad libitum.
In one exemplary method, mice were given zinc in drinking water. For this example, 8 HO HCU mice were provided drinking water supplemented with zinc (e.g. 0.05% w/v Zinc sulfate) given ad libitum for one week.
(§1) In another exemplary method, the transsulfuration pathway and methionine-folate cycle pathways, as show in the sematic illustrated in FIG. 18A, were assessed. In brief, three experimental groups (n=8 for each group) of male mice consisting of either untreated WT controls or HO HCU mice in the presence or absence of betaine treatment. Betaine was administered by dissolving the compound in drinking water at 30 g/l and was supplied ad libitum to the mice for one week. Treatment water was replenished twice per week.
A comparative reference data set was generated for these mice by examining plasma levels of tHcy, methionine, cysteine, serine, glycine, dimethylglycine, methylglycine (MG, SAM and SAH). In brief, determination of plasma levels of amino acids relevant to the methionine cycle were determined using methods similar to those described in Stabler et al., Blood. 81 (1993) 3404-3413, incorporated in its entirety herein. Determination of hepatic 5-methylTHF was performed by liquid chromatography-tandem mass spectrometry using methods similar to those described in Witham et al., PLoS One. 8 (2013) e77923, incorporated in its entirety herein. The global metabolomic analysis of methionine and folate cycle related metabolites was carried out by Metabolon, Inc. Briefly, sample preparation was performed utilizing the automated MicroLab STAR® system. Sample preparation was performed using a proprietary series of organic and aqueous extractions to remove the protein fraction while allowing maximum recovery of small molecules. The resulting extract was divided into two fractions: one for analysis by liquid chromatography and one for analysis by gas chromatography. Each sample was then frozen and dried under vacuum. The LC/mass spectrometer portion of the platform was based on a Waters ACQUITY UPLC and a Thermo-Finnigan LTQ mass spectrometer, which consisted of an electrospray ionization source and linear ion-trap mass analyzer. Samples were analyzed on a Thermo-Finnigan Trace DSQ fast-scanning single-quadrupole mass spectrometer using electron impact ionization. Identification of known chemical entities was based on comparison to library entries of authenticated standards. Tissue polyamines putrescine, spermidine and spermine and 5-methylthioadenosine (MTA) were determined by liquid chromatography-tandem mass spectrometry using methods similar to those described in Stevens et al., J Chromatogr A 1217 (2010) 3282-3288, incorporated in its entirety herein.

[2] = system: Cbs null mouse; test: Cbs null mouse model (Hcy, survival, liver injury); format: in vivo; conditions: severe liver damage abolished BHMT-mediated betaine response
Excerpt: In another exemplary method, an acceptable mouse mode of HCU was used to study various effects of exemplary compositions disclosed herein on aberrant Hcy levels. To date, the majority of research on HCU had been performed using a CBS knockout mouse model. These Cbs (−/−) animals experienced pronounced liver injury and typically die within 2-3 weeks of birth.
In another exemplary method, agents were used to verify involvement of BHMT in the homocystinuria treatment process. In these exemplary methods, a Cbs null mouse was used where severe liver damage to the mouse model interferes with standard HCU treatments to reduce Hcy.

[3] = system: DMGDH; test: Western blotting of hepatic DMGDH protein levels; format: in vivo, mouse; conditions: HO HCU mice, about 5.0% sodium formate alone or with about 3.0% betaine in drinking water, about one week
Excerpt: As shown in FIGS. 12A-12B, a Western blot comparing the level of DMGDH and GAPDH (control) for untreated (HO), treated (e.g. formate agent) and treated with standard treatment combinations (e.g. formate and trimethylglycine (e.g. betaine)) using the HCU mouse model (FIG. 12A); and further illustrating in a histogram plot (FIG. 12B), level of intensity of DMDGH for untreated (HO), treated (e.g. formate agent) and treated with standard treatment combinations (e.g. formate and trimethylglycine (e.g. betaine)) using the HCU mouse model in certain embodiments disclosed herein. Western blotting analysis of hepatic DMGDH protein levels in HO HCU mice in the presence and absence of either about 5.0% sodium formate alone or in combination with about 3.0% betaine given ad libitum in drinking water for about one week. N=9 per group. This figure is representative of three independent experiments.

[4] = system: HO HCU mice; test: Tail bleeding time / hypercoagulative phenotype in HO HCU mice; format: in vivo, mouse; conditions: 4 mM solution in drinking water ad libitum, one week
Procedure: In another exemplary method, effect of polyamines (e.g. spermidine and spermine) on the hypercoagulative phenotype induced by HCU was assessed which is a measure of treatment for genetic HCU where rapid coagulation is a side effect of these conditions. In brief, mice containing both the human CBS transgene and no functional copy of the mouse equivalent gene were identified by PCR from the litters of progeny of 11181×MKO^+/− F1 mice backcrossed to MKO^+/− mice. These mice were designated as “human only” (HO) mice and used as a human model of HCU. […] In order to further investigate the possible therapeutic potential of polyamine (e.g. spermidine and spermine) therapy in HCU, WT and HO HCU mice were given either: […]; […] in drinking water given ad libitum; or drinking water (untreated, control). After one week, tail bleeding times were determined for untreated wild type (WT) control B6 mice and HO HCU mice from all treatment groups.

[5] = system: HO HCU mice; test: Plasma metabolite levels (tHcy, methionine cycle amino acids, SAM, SAH) in HO HCU mice; format: in vivo, mouse; conditions: taurine treatment
[6] = system: SHMT1; test: Western blotting of hepatic SHMT1 expression; format: in vivo, mouse; conditions: HO mice, 30 g/l in drinking water ad libitum, one week
Procedure: (§2) To investigate the effects of these treatments upon the hepatic regulatory changes in enzyme expression induced by HCU, the human transgenic HO mouse model of HCU was used. In brief, experimental groups consisting of 8 HO mice on a C57BL/6J background and 8 C57BL/6J WT littermate control mice bred in house were used. Mice in both groups were male and aged between 3 and 4 months. Except where otherwise stated, all mice were maintained on standard chow. All diets were administered using a paired-feeding design to ensure isocaloric intake between all experimental groups and body weights were measured once per week. There was no significant difference in body weight between mice in any of the experimental groups. Betaine and taurine were in this example, both administered by dissolving these compounds in drinking water at 30 g/l (2% or 3% w/v) and were supplied ad libitum for one week. Treatment water was replenished twice per week.
(§3) These observations are the first to report betaine and taurine acting to regulate expression of these processes. Therefore, this observation supports that taurine alone or in combination with betaine and other treatments for genetic homocystinuria are viable options for avoiding dietary restraints and treating these conditions.

[7] = system: MTHFR; test: Western blotting of hepatic MTHFR expression; format: in vivo, mouse; conditions: HO mice, 30 g/l in drinking water ad libitum, one week
Procedure: as §2
(§4) Western blotting analysis of SAHH, MTHFR and SHMT2 expression was performed in liver samples from HO mice in the presence and absence of betaine or taurine treatment.

[8] = system: MAT1A; test: Western blotting of hepatic MAT1A expression; format: in vivo, mouse; conditions: HO HCU mice, 30 g/l in drinking water ad libitum, one week
Procedure: as §2, §3

[9] = system: GNMT; test: Western blotting of hepatic GNMT expression; format: in vivo, mouse; conditions: HO HCU mice, 30 g/l in drinking water ad libitum, one week
Procedure: as §2, §3

[10] = system: glutathione; conditions: taurine supplementation; cited from earlier work
[11] = system: HO HCU mice; conditions: taurine supplementation; cited from earlier work
[12] = system: SHMT2; test: Western blotting of hepatic SHMT2 expression; format: in vivo, mouse; conditions: HO mice, 30 g/l in drinking water ad libitum, one week
Procedure: as §2, §4

[13] = system: human HCU patients; conditions: taurine supplementation; cited from earlier work
[14] = mouse, in vivo
Procedure: as §1
as §2, with “Betaine and taurine were in this example, both administered by dissolving these compounds in drinking water at 30 g/l (2% or 3% w/v) and were supplied ad libitum for one week. Treatment water was replenished twice per week.” left out

[15] = system: cysteine oxidation pathways; test: Cysteine oxidation pathways in HCU (HO model); format: in vivo, mouse; conditions: 30 g/l in drinking water, one week
Procedure: as §2

[16] = system: SAHH; test: Western blotting of hepatic SAHH expression; format: in vivo, mouse; conditions: HO mice, 30 g/l in drinking water ad libitum, one week
Procedure: as §2, §4

Compound: O=S(=O)([O-])[O-].[Zn+2] [Zinc sulfate]
- decrease in plasma homocysteine ([1]; 8 HO HCU mice, 0.05% w/v Zinc sulfate in drinking water ad libitum, one week, p<0.001): 25%

Compound: NCC(=O)O [glycine]
- Hcy in Cbs null mouse model [2]: unable to lower Hcy
- plasma Hcy ([1]; one week): significantly lowered
- plasma cysteine levels ([1]; one week): increased

Compound: N[C@@H](CO)C(=O)O [serine]
- Hcy in Cbs null mouse model [2]: unable to lower Hcy
- plasma Hcy ([1]; one week): significantly lowered
- plasma cysteine levels ([1]; one week): increased

Compound: O=C[O-].[Na+] [sodium formate]
- Hcy in Cbs null mouse model [2]: unable to lower Hcy
- plasma Hcy levels ([1]; HO HCU mice, about 5.0% w/v sodium formate alone or with about 3.0% betaine in drinking water ad libitum, normal methionine/protein diet): significantly lowered
- hepatic DMGDH expression levels [3]: restore normal expression levels

Compound: NCCCCNCCCN [spermidine]
- clotting time (tail bleeding time) compared to untreated HO mice [4]: highly significant increase in clotting time

Compound: NCCCNCCCCNCCCN [spermine]
- clotting time (tail bleeding time) compared to untreated HO mice [4]: significantly ameliorated

Compound: NCCS(=O)(=O)O [taurine]
- effect upon lowering plasma tHcy levels [5]: only a mild effect
- increase in hepatic SHMT1 expression [6]: 35%
- HCU-mediated induction of hepatic MTHFR expression [7]: essentially identical reversal
- hepatic MAT1a expression [8]: induced expression
- hepatic GNMT expression [9]: induced expression
- HCU-induced disturbances in glutathione metabolism and the gamma-glutamyl cycle [10]: effectively normalized
- efficacy of betaine treatment in mice [11]: enhances the efficacy of betaine treatment
- HCU-induced repression of hepatic SHMT2 [12]: essentially identical reversal
- endothelial dysfunction in human HCU patients [13]: completely ablate endothelial dysfunction
- tolerability of doses [14]: well tolerated
- dysregulation of cysteine oxidation pathways in HCU [15]: ameliorate the dysregulation of cysteine oxidation pathways
- HCU-mediated induction of hepatic SAHH expression [16]: essentially identical reversal
